Laboratory results: patent publication US20100062995A1, “Transition state structure of human 5'methylthioadenosine phosphorylase” (priority 2006, published 2010)
“And” between values parts separate entries of the source, which are not always exact repeats. Identical values can stand only once. Marks after values point to notes of the source that are not given here. Each block holds one compound with its values, some of them ahead of it.

How the values were obtained:
human MTAP [1] = molecular target: T1, human MTAP (Homo sapiens, UniProt Q13126); conditions: cited from earlier work; for kcat: human MTAP (Kung et al., 2005); for fold increase in Km relative to MTA: human MTAP
T1 construct: His6 (N); made in house; host or cells: E. coli (pQE32 vector)
T1 sequence (Q13126 1-283): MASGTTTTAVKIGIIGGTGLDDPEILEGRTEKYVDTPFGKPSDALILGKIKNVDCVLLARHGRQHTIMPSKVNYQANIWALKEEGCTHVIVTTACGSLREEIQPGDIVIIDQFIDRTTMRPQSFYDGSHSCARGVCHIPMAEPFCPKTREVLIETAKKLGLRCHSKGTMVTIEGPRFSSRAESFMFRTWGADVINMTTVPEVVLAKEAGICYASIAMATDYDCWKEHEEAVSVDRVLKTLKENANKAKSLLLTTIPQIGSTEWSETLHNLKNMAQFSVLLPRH

human MTAP [2] = molecular target: T1, human MTAP; test: Kinetic analysis with substrate analogues (kcat, Km); type: biochemical
Source text: Kinetic analysis with substrate analogues provide additional evidence concerning the importance of the 3′-hydroxyl in catalysis (Kung et al., 2005). […] The formation of an oxyanion from ionization of the 3′-hydroxyl further stabilizes the positive charge at the anomeric carbon.

human MTAP [3] = molecular target: T1, human MTAP; test: Measurement of kinetic isotope effects on arsenolysis of MTA; type: biochemical; conditions: pH 7.5, arsenolysis of MTA; for KIE (experimental): corrected to 0% substrate depletion; for Intrinsic KIEs: observed KIE corrected for forward commitment
Method: Measurement of kinetic isotope effects. The KIEs were measured by mixing ^3H and ^14C labeled substrates with ^3H:^14C in 4:1 ratio. […] After 20-30% completion of the reaction, 750 μL of the reaction was resolved on charcoal-Sepharose (acid-washed powdered charcoal and Sepharose in 1:4 ratio made into a slurry in 1 mM 5-methylthioribose (MTR) and settled in Pasteur pipettes). The remainder of the reaction mixture was allowed to react to completion and then applied to the column. Columns were washed with 2 volumes of 1 mM MTR and radioactive methylthioribose was eluted with 6 volumes of 15 mM MTR containing 50% ethanol. Each 1.0 mL of eluate was mixed with 9.0 mL scintillation fluid and counted for at least 3 cycles at 10 minutes per cycle. The ^3H to ^14C ratio was determined for partial and complete reactions and the KIEs were corrected to 0% hydrolysis by the equation: […]
where f is the fraction of reaction progress and Rf and Ro are ratios of heavy to light isotope at partial and total completion of reaction, respectively.
Experimental kinetic isotope effects (KIEs) and commitment factors. […] To avoid kinetic complexity associated with the transition state analyses for reversible reactions, the KIEs for the human MTAP were measured on the physiologically irreversible reaction of arsenolysis. The products of arsenolysis are adenine and 5-methylthioribose 1-arsenate. Methylthioribose 1-arsenate is unstable and rapidly decomposes to form methylthioribose and arsenate.
Where ^T(V/K) is an observed tritium isotope effect, Cf is the forward commitment to catalysis. The intrinsic KIEs were obtained by correcting the observed KIEs (column 3, Table 1) for the forward commitment.

S. pneumoniae MTAN = S. pneumoniae MTAN (Streptococcus pneumoniae, UniProt Q8DQ16); conditions: S. pneumoniae MTAN (Singh et al., 2005a); cited from earlier work
Sequence of S. pneumoniae MTAN (Q8DQ16 entry or part of it): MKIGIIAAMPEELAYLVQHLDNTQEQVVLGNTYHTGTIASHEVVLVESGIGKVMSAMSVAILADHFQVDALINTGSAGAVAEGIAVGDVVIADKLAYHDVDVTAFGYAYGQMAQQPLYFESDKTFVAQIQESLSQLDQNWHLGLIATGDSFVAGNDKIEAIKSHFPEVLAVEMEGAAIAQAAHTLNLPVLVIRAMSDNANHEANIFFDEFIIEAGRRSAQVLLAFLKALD

E. coli MTAN = E. coli MTAN (Escherichia coli, UniProt P0AF12); conditions: E. coli MTAN (Singh et al., 2005a); cited from earlier work

Compound: CSC[C@H]1O[C@@H](n2cnc3c(N)ncnc32)C[C@@H]1O [2′-deoxy MTA]
- kcat (human MTAP [1]): 0.28 s⁻¹
- fold increase in Km relative to MTA (human MTAP [1]): ~2 fold

Compound: CSC[C@@H]1C[C@@H](O)[C@H](n2cnc3c(N)ncnc32)O1 [3′-deoxy MTA]
- fold decrease in kcat relative to MTA (human MTAP [2]): ~1000 fold
- kcat (human MTAP [1]): 0.004 s⁻¹
- fold increase in Km relative to MTA (human MTAP [1]): ~2 fold

Compound: CSC[C@H]1O[14C@@H](n2cnc3c(N)ncnc32)[C@H](O)[C@@H]1O [[1′-^14C], [1′-^14C]MTA]
- KIE (experimental) (human MTAP [3]): 1.025 ± 0.005^b
- Intrinsic KIEs (human MTAP [3]): 1.030 ± 0.005
- Intrinsic KIEs (human MTAP [3]; listed as 1′-^14C): 1.029
- Intrinsic KIEs (human MTAP [3]; listed as 1′-^14C MTA): 1.029

Compound: [3H][C@]1(CSC)O[C@@H](n2cnc3c(N)ncnc32)[C@H](O)[C@@H]1O [[4′-^3H], [4′-^3H]MTA]
- KIE (experimental) (human MTAP [3]): 1.037 ± 0.005
- Intrinsic KIEs (human MTAP [3]): 1.045 ± 0.005
- Intrinsic KIEs (human MTAP [3]; listed as 4′-^3H): 1.045
- intrinsic 4′-^3H KIE (S. pneumoniae MTAN): 1.015
- intrinsic 4′-^3H KIE (E. coli MTAN): 1.010

Compound: CS[14CH2][C@H]1O[C@@H]([15n]2cnc3c(N)ncnc32)[C@H](O)[C@@H]1O [[9-^15N/5′-^14C]]
- KIE (experimental) (human MTAP [3]): 1.031 ± 0.002^c
- Intrinsic KIEs (human MTAP [3]): 1.037 ± 0.002
- Intrinsic KIEs (human MTAP [3]; listed as 9-^15N): 1.037 and 1.036
- Intrinsic KIEs (human MTAP [3]; listed as 9-^15N MTA): 1.037
- Intrinsic KIEs (human MTAP [3]; listed as 15N9): 1.036

Next, values leading:

- KIE (experimental) (human MTAP [3]): 1.290 ± 0.003
- Intrinsic KIEs (human MTAP [3]): 1.350 ± 0.003
- Intrinsic KIEs (human MTAP [3]; listed as 1′-^3H): 1.35
Compound: [3H]C1(n2cnc3c(N)ncnc32)OC(CSC)C(O)C1O (stereo not shown) [[1′-^3H], [1′-^3H]MTA]

- KIE (experimental) (human MTAP [3]): 1.063 ± 0.003
- Intrinsic KIEs (human MTAP [3]): 1.076 ± 0.003
- Intrinsic KIEs (human MTAP [3]; listed as 2′-^3H): 1.076
Compound: [3H][C@@]1(O)[C@H](O)[C@@H](CSC)O[C@H]1n1cnc2c(N)ncnc21 [[2′-^3H], [2′-^3H]MTA]

- KIE (experimental) (human MTAP [3]): 1.038 ± 0.001
- Intrinsic KIEs (human MTAP [3]): 1.046 ± 0.001
- Intrinsic KIEs (human MTAP [3]; listed as [5′-^3H2] MTA): 1.046
Compound: [3H]C([3H])(SC)[C@H]1O[C@@H](n2cnc3c(N)ncnc32)[C@H](O)[C@@H]1O [[5′-^3H], [5′-^3H]MTA]

- KIE (experimental) (human MTAP [3]): 1.073 ± 0.002
- Intrinsic KIEs (human MTAP [3]): 1.086 ± 0.002
- Intrinsic KIEs (human MTAP [3]; listed as [Me-^3H3] MTA): 1.086
Compound: [3H]C([3H])([3H])SC[C@H]1O[C@@H](n2cnc3c(N)ncnc32)[C@H](O)[C@@H]1O [[Me-^3H], [methyl-^3H3]MTA]
